{"source": "paper PMC10937556", "about": "“Phenolic phytochemistry, in vitro, in silico, in vivo, and mechanistic anti-inflammatory and antioxidant evaluations of Habenaria digitata” (Frontiers in Pharmacology, 2024)", "tested_on": "bradykinin-induced paw edema", "assay": "Bradykinin-induced paw edema", "protocol": "Employing prostaglandin E2, bradykinin, leukotriene, and histamine induced paw edema assays; the potential anti-inflammatory mechanism of the isolated compound was investigated. […] Sub-planter injections of prostaglandin E2 (0.01 mg/mL) or 10 mg/mL leukotriene or bradykinin (20 mg/mL) or 0.1 mL histamine (1 mg/mL) produced paw edema after 1 h. Each mouse’s paw volume was assessed immediately before and after sub-planter injection of various irritants (inflammatory agents) at 1–5 h.", "data": [{"smiles": "Cc1cnc(O)nc1O", "note": "[Compound 1, 5-methylpyrimidine-24,4-diol]", "values": [{"measurement": "Percentage inhibition of bradykinin-induced paw edema", "setting": "20 mg/kg, initial hour", "result": "9.20 ± 1.12", "unit": "%"}, {"measurement": "Activity against bradykinin-induced paw edema", "setting": "low doses", "result": "no activity"}]}]}
